Source: PMC12483202, “Pharmacokinetic profile of oral firocoxib in the koala (Phascolarctos cinereus)” (PLOS One, 2025)

Assay: Single oral dose (5 mg/kg) pharmacokinetics of firocoxib in koalas, plasma HPLC, non-compartmental analysis;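 also: healthy adult koalas, three per sex, anaesthetised the day before dosing for cephalic vein catheterisation, with serial blood draws and firocoxib in plasma quantified by HPLC using fluorescence detection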
Conditions: for Cmax / MRT inf / Tmax / Vd/F / k el / half-life / concentration at 2 h / concentration at 4 h / concentration at 8 h / concentration at 1 h / concentration at 0.25 h / concentration at 0.5 h / concentration at 12 h / concentration at 24 h / AUC(0-inf) / AUC(0-t): plasma, po, 5 mg/kg; for MRT inf: MRT0-inf; for Vd/F: Vz/F; for concentration at 2 h / concentration at 4 h / concentration at 8 h / concentration at 1 h / concentration at 0.25 h / concentration at 0.5 h / concentration at 12 h / concentration at 24 h: Firocoxib plasma concentration; for AUC(0-t): AUC0-t
[1] = female, K4 female, single oral 5 mg/kg
[2] = female, K5 female, single oral 5 mg/kg
[3] = female, arithmetic mean, female koalas (n = 3), single oral 5 mg/kg
[4] = female, harmonic mean, female koalas (n = 3), single oral 5 mg/kg
[5] = female, K6 female, single oral 5 mg/kg
[6] = harmonic mean, female koalas (n = 3), single oral 5 mg/kg
[7] = harmonic mean, male koalas (n = 3), single oral 5 mg/kg
[8] = harmonic mean, n = 6 koalas, single oral 5 mg/kg
[9] = male, koala (Phascolarctos cinereus), K1 male, single oral 5 mg/kg
[10] = male, koala (Phascolarctos cinereus), K2 male, single oral 5 mg/kg
[11] = male, koala (Phascolarctos cinereus), K3 male, single oral 5 mg/kg
[12] = male, koala, K1 male, single oral 5 mg/kg
[13] = male, koala, K2 male, single oral 5 mg/kg
[14] = male, koala, K3 male, single oral 5 mg/kg
[15] = male, K1 male, single oral 5 mg/kg
[16] = male, K2 male, single oral 5 mg/kg
[17] = male, K3 male, single oral 5 mg/kg
[18] = male, arithmetic mean, male koalas (n = 3), single oral 5 mg/kg
[19] = male, harmonic mean, male koalas (n = 3), single oral 5 mg/kg
[20] = median (range), n = 6 koalas, single oral 5 mg/kg

Text: Six mature koalas (3 males, 3 females) with median (range) body weights and ages of 9.2 kg, (7.5 to 9.7 kg) and 4.8 years (4.3 to 9.1 years), respectively, were recruited from the Taronga Zoo colony (Mosman, NSW, Australia). These koalas were clinically normal based on regular physical examinations, haematological and biochemical analyte values. During the study, koalas were housed singly and supplied with various Eucalyptus spp. foliage and water ad-libitum. […] No animals were sacrificed; the animals were returned to the colony immediately after firocoxib administration and blood sampling. In order to minimise stress, intravenous catheterisation for sequential blood sampling was performed under general anaesthesia.
The day prior to drug administration and blood collection, the koalas were anaesthetised with alfaxalone (Alfaxan, Jurox, Pty Ltd, Rutherford, NSW, Australia) at 3 mg/kg administered intramuscularly (i.m.) and maintained under anaesthesia on isoflurane in 100% oxygen via a face mask for placement of a 20 gauge, 1 ¼ inch intravenous catheter into the cephalic vein. A short T-connector extension set (Codan, Santa Ana, CA, USA) and cap was attached to the catheter and flushed with saline. The extension tube, cap and catheter were secured with tape and bandage, for serial blood collection. Blood (5 mL) was collected at the time of anaesthesia in a lithium heparin tube to establish a baseline (t = 0 h).
Firocoxib was administered as a single oral dose of 5 mg/kg as crushed tablets made into a paste with Vetafarm Koala Crittacare (Wagga Wagga, NSW) and water.
Samples were centrifuged at 1500 x g for 10 minutes, within 1 h of collection; the plasma was immediately stored at –80 °C and protected from light until drug quantification. […] Clinical observations for the presence of adverse effects in the animals treated included measurement of vital signs, appetite, body weight, faecal consistency and overall behaviour and mobility.
Quantification of firocoxib and visualisation of metabolites in plasma was achieved by HPLC with fluorescence detection modified from a published method [12]. The HPLC system consisted of a Shimadzu LC-20AT solvent delivery unit, DGU-20A degasser, a SIL-20A HT auto injector, an SPD-20A UV detector and RF-10A XL fluorescence detector (Shimadzu, Rydalmere, NSW, Australia) and column oven (CTO-20A). […] Chromatographic separation was performed with a Supelco, Discovery C18, (25 cm x 4.6 mm, 5 µm) column (Merck KGaA, Darmstadt, Germany) with a 1-mm Opti-guard C18 pre-column (Choice Analytical, Thornleigh, NSW, Australia) at ambient temperature. […] Fluorescence detection excitation and emission wavelengths were 280 nm and 375 nm, respectively.
For sample preparation 200 μL of each of the following: plasma samples collected from koalas administered firocoxib, standards prepared for the standard curves and the QC samples; were extracted twice by mixing with 800 μL of ethyl acetate. The extracted organic portion (1.6 mL) was dried under vacuum in a Speed Vac Concentrator (Thermo Scientific, MA, USA) at 35 °C for 1 h, reconstituted with 100 μL of acetonitrile, and finally 10 μL of the reconstituted sample was injected into the HPLC system.
The concentration of each QC sample was repeated three times with the accuracy and precision calculated on each of the triplicates. The mean accuracy ± standard deviation (SD) were calculated using the formula [13]:
Firocoxib plasma concentrations from the initial oral administration underwent non-compartmental analysis. The peak concentration (Cmax) and the time reached (Tmax) were obtained directly from the measured concentrations. The elimination half-life (t1/2) was determined by ln2/ke where ke is the elimination rate constant which is the inverse slope of the elimination or terminal part of the semi-log curve.

- Cmax (female, median value, female koalas, PO 5 mg/kg): 61.9 ng/mL
- MRT inf [1]: 8.74 h
- MRT inf [2]: 13.1 h
- MRT inf [3]: 16.1 h
- MRT inf [4]: 13.1 h
- Tmax [1]: 4 h
- Tmax [2]: 2 h
- Tmax [5]: 4 h
- Tmax [3]: 3.33 h
- Tmax [4]: 3 h
- Vd/F [1]: 202 L
- Vd/F [2]: 616 L
- Vd/F [5]: 2130 L
- Vd/F [3]: 982 L
- Vd/F [4]: 437 L
- k el (female, ke (elimination constant), K4 female, single oral 5 mg/kg, slope from 8, 12, 24 h): 5.28e-05 s⁻¹
- k el (female, ke (elimination constant), K5 female, single oral 5 mg/kg, slope from 8, 12, 24 h): 1.94e-05 s⁻¹
- k el (female, ke (elimination constant), K6 female, single oral 5 mg/kg, slope from 8,12,24 h): 2.78e-05 s⁻¹
- k el (female, ke, arithmetic mean, female koalas (n = 3), single oral 5 mg/kg): 3.33e-05 s⁻¹
- k el (female, ke, harmonic mean, female koalas (n = 3), single oral 5 mg/kg): 2.78e-05 s⁻¹
- half-life (female, t1/2 (elimination half-life), K4 female, single oral 5 mg/kg): 3.67 h
- half-life (female, t1/2 (elimination half-life), K5 female, single oral 5 mg/kg): 9.91 h
- half-life (female, t1/2 (elimination half-life), K6 female, single oral 5 mg/kg): 7.24 h
- half-life (female, t1/2, arithmetic mean, female koalas (n = 3), single oral 5 mg/kg): 6.94 h
- half-life (female, t1/2, harmonic mean, female koalas (n = 3), single oral 5 mg/kg): 5.87 h
- half-life (female, t1/2, median value, female koalas, PO 5 mg/kg): 7.24 h
- AUC 0-t/AUC0-inf [6]: 0.91
- AUMC 0-inf [6]: 10875.3 ng/mL*h^2
- Cl/F [6]: 52.0 L/h
- ka [6]: 0.25 h⁻¹
- AUC 0-t/AUC0-inf [7]: 0.88
- AUMC 0-inf [7]: 16711.5 ng/mL*h^2
- Cl/F [7]: 23.8 L/h
- ka [7]: 0.16 h⁻¹
- AUMC [8]: 13176.1 ng/mL*h ^ 2
- Cl/F [8]: 32.6 L/h
- ka [8]: 0.20 h⁻¹
- concentration at 2 h [9]: 22.7 ng/mL
- concentration at 4 h [9]: 68.3 ng/mL
- concentration at 8 h [9]: 191 ng/mL
- concentration at 2 h [10]: 39.2 ng/mL
- concentration at 4 h [10]: 210 ng/mL
- concentration at 8 h [10]: 118 ng/mL
- concentration at 1 h [11]: 41.9 ng/mL
- concentration at 2 h [11]: 105 ng/mL
- concentration at 4 h [11]: 263 ng/mL
- concentration at 8 h [11]: 128 ng/mL
- concentration at 0.25 h [12]: 7.94 ng/mL
- concentration at 0.5 h [12]: 4.51 ng/mL
- concentration at 1 h [12]: 8.34 ng/mL
- concentration at 12 h [12]: 101 ng/mL
- concentration at 24 h [12]: 57.2 ng/mL
- concentration at 0.25 h [13]: 4.37 ng/mL
- concentration at 0.5 h [13]: 10 ng/mL
- concentration at 1 h [13]: 21.7 ng/mL
- concentration at 12 h [13]: 39.7 ng/mL
- concentration at 24 h [13]: 4.13 ng/mL
- concentration at 0.25 h [14]: 16.6 ng/mL
- concentration at 0.5 h [14]: 52.5 ng/mL
- concentration at 12 h [14]: 49.6 ng/mL
- concentration at 24 h [14]: 3.86 ng/mL
- AUC(0-inf) (male, AUC0-inf, K1 male, single oral 5 mg/kg): 3000 ng·h/mL
- AUC(0-inf) (male, AUC0-inf, K2 male, single oral 5 mg/kg): 1540 ng·h/mL
- AUC(0-inf) (male, AUC0-inf, K3 male, single oral 5 mg/kg): 1950 ng·h/mL
- AUC(0-inf) (male, AUC 0-inf, arithmetic mean, male koalas (n = 3), single oral 5 mg/kg): 2160 ng·h/mL
- AUC(0-inf) (male, AUC 0-inf, harmonic mean, male koalas (n = 3), single oral 5 mg/kg): 2010 ng·h/mL
- AUC(0-t) [15]: 2160 ng·h/mL
- AUC(0-t) [16]: 1520 ng·h/mL
- AUC(0-t) [17]: 1930 ng·h/mL
- AUC(0-t) [18]: 1870 ng·h/mL
- AUC(0-t) [19]: 1830 ng·h/mL
- Cmax [15]: 191 ng/mL
- Cmax [16]: 210 ng/mL
- Cmax [17]: 263 ng/mL
- Cmax [18]: 221 ng/mL
- Cmax [19]: 217 ng/mL
- Cmax (male, median value, male koalas, PO 5 mg/kg): 210 ng/mL
- MRT inf [15]: 19 h
- MRT inf [16]: 7.13 h
- MRT inf [17]: 6.88 h
- MRT inf [18]: 11.1 h
- MRT inf [19]: 9.01 h
- Tmax [15]: 8 h
- Tmax [16]: 4 h
- Tmax [17]: 4 h
- Tmax [18]: 5.33 h
- Tmax [19]: 4.8 h
- Vd/F [15]: 277 L
- Vd/F [16]: 152 L
- Vd/F [17]: 113 L
- Vd/F [18]: 181 L
- Vd/F [19]: 158 L
- k el (male, ke (elimination constant), K1 male, single oral 5 mg/kg, slope from 12, 24 h): 1.39e-05 s⁻¹
- k el (male, ke (elimination constant), K2 male, single oral 5 mg/kg, slope from 4, 8, 12 h): 5.83e-05 s⁻¹
- k el (male, ke (elimination constant), K3 male, single oral 5 mg/kg, slope from 4, 8, 12 h): 6.11e-05 s⁻¹
- k el (male, ke, arithmetic mean, male koalas (n = 3), single oral 5 mg/kg): 4.44e-05 s⁻¹
- k el (male, ke, harmonic mean, male koalas (n = 3), single oral 5 mg/kg): 2.78e-05 s⁻¹
- half-life (male, t1/2 (elimination half-life), K1 male, single oral 5 mg/kg): 14.7 h
- half-life (male, t1/2 (elimination half-life), K2 male, single oral 5 mg/kg): 3.31 h
- half-life (male, t1/2 (elimination half-life), K3 male, single oral 5 mg/kg): 3.19 h
- half-life (male, t1/2, arithmetic mean, male koalas (n = 3), single oral 5 mg/kg): 7.06 h
- half-life (male, t1/2, harmonic mean, male koalas (n = 3), single oral 5 mg/kg): 4.38 h
- half-life (male, t1/2, median value, male koalas, PO 5 mg/kg): 3.31 h
- AUMC [20]: 12429.4 (8500.1–56998.2) ng/mL*h ^ 2
- Cl/F [20]: 34.5 (19.0-87.5) L/h
- ka [20]: 0.23 (0.11-0.43) 1/h
- time after which firocoxib could be detected in the plasma of all koalas (single oral 5 mg/kg): 15 min
SMILES: CC1(C)OC(=O)C(OCC2CC2)=C1c1ccc(S(C)(=O)=O)cc1 [firocoxib]
